The assay addresses T1, mGluR2 receptor (metabotropic glutamate receptor 2) (Homo sapiens, UniProt Q14416).
T1 construct: expressed in transfected cells
The experiment in a line: mGluR2 Potentiator Screen, FLIPR, EC10-EC20 glutamate challenge. Type of assay: cell-based. In short, it runs like this: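 Potentiator assay in HEK cells stably expressing mGluR2 with Gα15, glutamine-depleted overnight, loaded with Fluo-4 plus probenecid and GPT/pyruvate to remove glutamate. Peak fluorescence ratio curve-fitted, with maximum set by on-plate standards.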

Setting [1] is: HEK cells stably transfected with mGluR2 and Gα15, FLIPR (Fluo-4), potentiation of an EC10 to EC20 concentration of glutamate, Table 9.
[2] abbreviates: mGluR2 potentiator screen, FLIPR, EC10-EC20 glutamate challenge.

Read-outs that look alike come from different tables or passages of the source. Bounds are passed on as bounds.

T1 sequence (Q14416 19-872, species assumed): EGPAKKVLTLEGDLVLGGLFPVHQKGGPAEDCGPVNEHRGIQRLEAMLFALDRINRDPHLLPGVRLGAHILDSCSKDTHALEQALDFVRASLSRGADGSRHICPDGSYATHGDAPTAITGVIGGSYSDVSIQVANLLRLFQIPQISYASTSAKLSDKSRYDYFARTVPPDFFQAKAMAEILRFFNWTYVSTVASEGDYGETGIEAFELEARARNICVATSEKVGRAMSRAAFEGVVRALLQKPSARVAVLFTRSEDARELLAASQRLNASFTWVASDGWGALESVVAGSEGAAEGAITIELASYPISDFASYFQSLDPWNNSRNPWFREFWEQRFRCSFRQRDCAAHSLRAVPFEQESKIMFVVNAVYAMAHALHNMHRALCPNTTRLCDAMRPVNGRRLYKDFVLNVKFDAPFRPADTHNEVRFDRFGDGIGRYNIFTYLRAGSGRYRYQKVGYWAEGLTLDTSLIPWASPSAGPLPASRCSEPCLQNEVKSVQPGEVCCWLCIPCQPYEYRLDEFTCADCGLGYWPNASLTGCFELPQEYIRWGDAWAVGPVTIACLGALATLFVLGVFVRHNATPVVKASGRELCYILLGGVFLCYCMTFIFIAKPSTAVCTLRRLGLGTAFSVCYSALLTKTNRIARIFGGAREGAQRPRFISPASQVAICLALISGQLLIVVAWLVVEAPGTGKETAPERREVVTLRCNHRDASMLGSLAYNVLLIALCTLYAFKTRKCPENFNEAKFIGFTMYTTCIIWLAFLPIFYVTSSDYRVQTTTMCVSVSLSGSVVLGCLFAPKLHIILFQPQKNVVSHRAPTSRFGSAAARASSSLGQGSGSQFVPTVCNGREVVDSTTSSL

In the case of `COc1cc(OC(F)(F)F)ccc1[C@H]1CCN(Cc2nc3cnccc3n2C)C[C@H]1C` (relative stereo) [compound 214], the EC50 – broadly, the concentration at which the effect is half-maximal – was determined as 124 nM.

As for `C[C@@H]1CN(Cc2nc3cnccc3n2C)CC[C@@H]1c1ccc2c(c1)CCO2` (relative stereo) [compound 201], the EC50 is over 1070 nM.

Regarding `COc1cc(C(F)(F)F)ccc1C1CCN(Cc2nc3nccc4c3n2CCC4)CC1` [Example 135, 2-({4-[2-methoxy-4-(trifluoromethyl)phenyl]-piperidin-1-yl}methyl)-5,6-dihydro-4H-imidazo[4,5,1-ij]-1,7-naphthyridine], the EC50 is under 5.43 nM. Further, the EC50 under setting [1] was under 5.43 nM.

`Cn1c(CN2CCC(c3cc(C(F)(F)F)ccc3F)CC2)nc2cnccc21` [compound 57]: the EC50 was determined as 448 nM.

As for `Cc1ccc([C@H]2CCN(Cc3nc4cnccc4n3C)C[C@H]2C)c(Cl)c1` (relative stereo) [compound 209], the EC50 came to 159 nM.

As to `C[C@@H]1CN(Cc2nc3cnccc3n2C)CC[C@@H]1c1ccc(OC(F)(F)F)cc1Cl` (relative stereo) [compound 188], the EC50 worked out at 194 nM.

For `C[C@@H]1CN(Cc2nc3ncccc3n2C)CC[C@@H]1c1ccc(C(F)(F)F)cc1` (single isomer, unassigned) [compound 119], the EC50 was over 1990 nM.

With `C[C@@H]1CN(Cc2nc3cnccc3n2C)CC[C@@H]1c1ccc(Cl)cc1Cl` (relative stereo) [compound 156], the 50% effective concentration (EC50) amounted to 88.2 nM.

Turning to `CCOc1ccc(Cl)cc1C1CCN(Cc2nc3ncccc3n2C)CC1` [compound 41], the concentration for a half-maximal effect (EC50) was 4810 nM.

Regarding `C[C@@H]1CN(Cc2nc3ncccc3n2C)CC[C@@H]1c1ccc(F)c(C(F)(F)F)c1` (relative stereo) [compound 197], the EC50 worked out at 128 nM.

Regarding `CC(C)Oc1ccc([C@H]2CCN(Cc3nc4cnccc4n3C)C[C@H]2C)c(F)c1` (single isomer, unassigned) [compound 219], the EC50 worked out at 60.6 nM.

Take `C[C@@H]1CN(Cc2nc3ncccc3n2C)CC[C@@H]1c1ccc(C(F)(F)F)cc1Cl` (single isomer, unassigned) [compound 162]: the half-maximal effective concentration (EC50) was under 18 nM.

Turning to `Cn1c(CN2CCC(F)(c3ccc(C(F)(F)F)cc3)CC2)nc2ncccc21` [compound 99], the 50% effective concentration (EC50) was determined as 434 nM.

Turning to `C[C@@H]1CN(Cc2nc3cnccc3n2C)CC[C@@H]1c1ccc(OC(F)(F)F)cc1` (single isomer, unassigned) [compound 175], the EC50 is over 3200 nM.

In the case of `C#CCOc1ccc(Cl)cc1C1CCN(Cc2nc3ncccc3n2C)CC1` [compound 45], the half-maximal effective concentration (EC50) was 72.6 nM.

Take `C[C@@H]1CN(Cc2nc3cnccc3n2C)CC[C@@H]1c1ccc(OC(F)F)cc1Cl` (single isomer, unassigned) [compound 246]: the EC50 under setting [2] was 99.9 nM.

Consider `C[C@@H]1CN(Cc2nc3ncccc3n2C)CC[C@@H]1c1ccc(C(F)(F)F)c(F)c1` (relative stereo) [compound 147], for which the half-maximal effective concentration (EC50) is 41.3 nM.

For the molecule `Cn1c(CN2CCC(c3c(F)cccc3C(F)(F)F)CC2)nc2cnccc21` [compound 228], the EC50 was over 458 nM.

Turning to `C[C@@H]1CN(Cc2nc3ncccc3n2C)CC[C@@H]1c1cc(F)c(F)cc1F` (relative stereo) [compound 179], the EC50 came to 381 nM.

For the molecule `C[C@@H]1CN(Cc2nc3ncccc3n2C)CC[C@@H]1c1ccc(OC(F)F)cc1` (single isomer, unassigned) [compound 223], the EC50 was over 129 nM.

As for `COc1ccc([C@H]2CCN(Cc3nc4ncccc4n3C)C[C@H]2C)c(C(F)(F)F)c1` (relative stereo) [compound 173], the EC50 is 214 nM.

With `C[C@@H]1CN(Cc2nc3ncccc3n2C)CC[C@@H]1c1ccc2c(c1)CCO2` (relative stereo) [compound 200], the EC50 was found to be 469 nM.

On to `CCCOc1ccc(Cl)cc1C1CCN(Cc2nc3ncccc3n2C)CC1` [compound 38], for which the concentration giving a half-maximal response (EC50) was 392 nM.

Regarding `C[C@@H]1CN(Cc2nc3ncccc3n2C)CC[C@@H]1c1ccc(OC(F)(F)F)cc1Cl` (relative stereo) [compound 187], the concentration giving a half-maximal response (EC50) is 63 nM.

For the molecule `Cn1c(CN2CCC(c3ccc(OC(F)F)cc3)CC2)nc2cnccc21` [compound 263], the concentration giving a half-maximal response (EC50) under setting [2] worked out at 906 nM.

As for `COc1cc(C(F)(F)F)ccc1C1CCN(Cc2nc3ncccc3n2C)CC1` [compound 64], the EC50 stood at 11.1 nM.

On to `Cn1c(CN2CCC(c3ccc(C(F)(F)F)cc3)CC2)nc2cnccc21` [compound 47], for which the EC50 is 168 nM.

In the case of `Cn1c(CN2CCC(c3ccccc3C(F)(F)F)CC2)nc2cnccc21` [compound 48], the concentration giving a half-maximal response (EC50) was 481 nM.

Consider `CCOc1ccc([C@H]2CCN(Cc3nc4cnccc4n3C)C[C@H]2C)cc1F` (relative stereo) [compound 194], for which the EC50 was over 5360 nM.

For `CC(C)Oc1ccc(C2CCN(Cc3nc4ncccc4n3C)CC2)c(F)c1` [compound 262], under setting [2], the concentration giving a half-maximal response (EC50) amounted to 127 nM.

Consider `COc1cc(F)ccc1C1CCN(Cc2nc3cnccc3n2C)CC1` [compound 88], for which the EC50 was determined as 372 nM.

`COc1cc(C(F)(F)F)ccc1[C@H]1CCN(Cc2nc3ncccc3n2C)C[C@H]1C` (relative stereo) [compound 114]: the EC50 was 42.8 nM.

As to `CC(C)Oc1ccc([C@H]2CCN(Cc3nc4ncccc4n3C)C[C@H]2C)cc1Cl` (relative stereo) [compound 195], the EC50 was determined as 506 nM.

Regarding `COc1cc(F)ccc1[C@H]1CCN(Cc2nc3cnccc3n2C)C[C@H]1C` (single isomer, unassigned) [compound 259], under setting [2], the EC50 was determined as 1460 nM.

As for `Cn1c(CN2CCC(c3ccc(F)c(Cl)c3)CC2)nc2ncccc21` [compound 101], the EC50 was determined as 313 nM.

Regarding `CCOc1ccc([C@H]2CCN(Cc3nc4ncccc4n3C)C[C@H]2C)cc1` (relative stereo) [compound 120], the EC50 came out at 639 nM.

Consider `COc1ccccc1C1CCN(Cc2nc3ncccc3n2C)CC1` [compound 51], for which the concentration for a half-maximal effect (EC50) was determined as 1540 nM.

Regarding `C[C@@H]1CN(Cc2nc3ncccc3n2C)CC[C@@H]1c1ccc(Cl)cc1C(F)(F)F` (relative stereo) [compound 207], the half-maximal effective concentration (EC50) turned out to be 108 nM.

Regarding `C[C@@H]1CN(Cc2nc3cnccc3n2C)CC[C@@H]1c1ccc(Cl)cc1F` (relative stereo) [compound 116], the EC50 was found to be 49.8 nM.

`COc1ccc(C2CCN(Cc3nc4ncccc4n3C)CC2)cc1F` [compound 92]: the EC50 was 2800 nM.

Consider `CO[C@@H]1CN(Cc2nc3cnccc3n2C)CC[C@@H]1c1ccc(C(F)(F)F)cc1` (relative stereo) [compound 227], for which the EC50 was found to be 606 nM.

Regarding `CCCOc1ccc(Cl)cc1C1CCN(Cc2nc3cccnc3n2C)CC1` [compound 40], the EC50 was 410 nM.

In the case of `C[C@@H]1CN(Cc2nc3cnccc3n2C)CC[C@@H]1c1ccc2c(c1)CCCC2` (relative stereo) [compound 190], the half-maximal effective concentration (EC50) is 573 nM.

Regarding `Cn1c(CN2CCC(c3ccc(F)c(Cl)c3)CC2)nc2cnccc21` [compound 102], the 50% effective concentration (EC50) was found to be 482 nM.

For the molecule `C[C@@H]1CN(Cc2nc3ncccc3n2C)CC[C@@H]1c1ccc(Cl)cc1Cl` (single isomer, unassigned) [compound 185], the EC50 is 64.2 nM.

As for `CC(C)Oc1ccc([C@H]2CCN(Cc3nc4ncccc4n3C)C[C@H]2C)c(F)c1` (relative stereo) [compound 166], the EC50 was 82.3 nM.

Take `Cc1cc(F)ccc1[C@H]1CCN(Cc2nc3ncccc3n2C)C[C@H]1C` (relative stereo) [compound 206]: the EC50 is 88.6 nM.

As to `Cc1cc(NC(=O)c2cccc(C3CCN(Cc4nc5ncccc5n4C)CC3)c2)n[nH]1` [compound 105], the EC50 came out at 3660 nM.

With `Cn1c(CN2CCC(c3cccc(F)c3F)CC2)nc2ncccc21` [compound 108], the EC50 amounted to 307 nM.

In the case of `CC(C)Oc1ccc([C@H]2CCN(Cc3nc4ncccc4n3C)C[C@H]2C)c(F)c1` (single isomer, unassigned) [compound 218], the 50% effective concentration (EC50) is over 909 nM.

In the case of `Cn1c(CN2CCC(c3ccc(Cl)c(F)c3)CC2)nc2cccnc21` [compound 109], the EC50 was found to be 378 nM.

Turning to `C[C@@H]1CN(Cc2nc3ncccc3n2C)CC[C@@H]1c1ccc(OC(F)F)cc1Cl` (single isomer, unassigned) [compound 244], under setting [2], the half-maximal effective concentration (EC50) turned out to be 36 nM.

As to `C[C@@H]1CN(Cc2nc3cnccc3n2C)CC[C@@H]1c1ccc(OC(F)(F)F)cc1Cl` (single isomer, unassigned) [compound 254], the EC50 under setting [2] is 86.6 nM.

As to `C[C@@H]1CN(Cc2nc3nccc4c3n2CCC4)CC[C@@H]1c1ccc(F)cc1F` (relative stereo) [Example 127, 2-{[Cis-4-(2,4-difluorophenyl)-3-methylpiperidin-1-yl]methyl}-5,6-dihydro-4H-imidazo[4,5,1-ij]-1,7-naphthyridine], the EC50 is 47.1 nM. In addition, the EC50 under setting [1] is 47.1 nM.

As for `C[C@@H]1CN(Cc2nc3ncccc3n2C)CC[C@@H]1c1ccc(Cl)cc1F` (single isomer, unassigned) [compound 122], the EC50 came to 28.8 nM.

As to `C[C@@H]1CN(Cc2nc3cnccc3n2C)CC[C@@H]1c1ccc(C(F)(F)F)c(Cl)c1` (relative stereo) [compound 235], under setting [2], the concentration giving a half-maximal response (EC50) is 135 nM.

As for `C[C@@H]1CN(Cc2nc3nccc4c3n2CCC4)CC[C@@H]1c1ccc(Cl)cc1F` (relative stereo) [Example 129, 2-{[Cis-4-(4-chloro-2-fluorophenyl)-3-methylpiperidin-1-yl]methyl}-5,6-dihydro-4H-imidazo[4,5,1-ij]-1,7-naphthyridine], the EC50 stood at 12.5 nM. Also, under setting [1], the EC50 is 12.5 nM.

With `CC(C)Oc1ccc([C@H]2CCN(Cc3nc4cnccc4n3C)C[C@H]2C)c(F)c1` (relative stereo) [compound 167], the concentration for a half-maximal effect (EC50) was over 172 nM.

With `C[C@@H]1CN(Cc2nc3cnccc3n2C)CC[C@@H]1c1ccc(C(F)(F)F)cc1F` (single isomer, unassigned) [compound 144], the half-maximal effective concentration (EC50) was 23 nM.

In the case of `C[C@@H]1CN(Cc2nc3cnccc3n2C)CC[C@@H]1c1cc(F)c(F)cc1F` (relative stereo) [compound 180], the concentration giving a half-maximal response (EC50) was 762 nM.

The values are drawn from patent US20080312271A1, “AZABENZIMIDAZOLYL COMPOUNDS” (Pfizer Inc., priority 2006, published 2008).
